Patent publication US12509421B2, “Preparation and application of deuterated 4-phenyl-4-piperidinols” (priority 2022, dated 2025)
Counter-ions that a name gives are not always drawn.

Assays:
[1] = target: T1, CYP 1A2 (Homo sapiens, UniProt P05177); assay: Inhibition of cytochrome P450 enzyme in human liver microsomes, CYP 1A2
T1 sequence (P05177 1-516): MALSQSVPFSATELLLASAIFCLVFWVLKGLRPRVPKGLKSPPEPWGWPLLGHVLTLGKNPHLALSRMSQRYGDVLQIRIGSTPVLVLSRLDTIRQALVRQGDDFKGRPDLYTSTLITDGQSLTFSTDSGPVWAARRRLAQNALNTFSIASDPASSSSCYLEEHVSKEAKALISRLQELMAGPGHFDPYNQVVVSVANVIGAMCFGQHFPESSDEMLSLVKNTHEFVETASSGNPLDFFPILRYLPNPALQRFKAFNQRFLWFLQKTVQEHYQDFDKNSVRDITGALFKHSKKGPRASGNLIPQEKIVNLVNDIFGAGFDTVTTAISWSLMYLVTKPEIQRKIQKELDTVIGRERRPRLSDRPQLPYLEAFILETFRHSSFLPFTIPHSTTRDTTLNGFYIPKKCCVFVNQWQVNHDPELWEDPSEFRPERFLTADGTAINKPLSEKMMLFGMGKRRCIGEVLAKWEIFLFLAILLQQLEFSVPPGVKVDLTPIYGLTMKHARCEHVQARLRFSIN

[2] = target: CYP 2C9 (Homo sapiens, UniProt P11712); assay: Inhibition of cytochrome P450 enzyme in human liver microsomes, CYP 2C9
[3] = target: CYP 2D6 (Homo sapiens, UniProt P10635); assay: Inhibition of cytochrome P450 enzyme in human liver microsomes, CYP 2D6
[4] = target: CYP 3A4 (Homo sapiens, UniProt P08684); assay: biochemical; conditions: CYP 3A4 IC50, human liver microsomes
[5] = Metabolic stability in liver microsomes, dog; conditions: for half-life at 2 μM / microsomal CLint at 2 μM: dog, microsomes, pH 7.4
Protocol: (§1) The solution B is slowly dropped into solution A, and the pH is adjusted to 7.40±0.05.
(§2) • Control drug: 4 μL Verapamil solution (10 mM) is added with 96 μL DMSO and diluted to 400 μM; • Compound to be tested: 4 μL compound to be tested (10 mM) is added with 96 μL normal saline and diluted to 400 μM.
(§3) The microsomes are stored in the refrigerator at −80° C., thawed at room temperature after being taken out, and mixed gently.
(§4) […] PBS (100 mm, pH=7.4) solution is added to the negative sample. The solution is put into water bath at 37° C. and pre-incubated for 10 minutes; • B) After incubation, 2 μL reference drug or compound to be tested (400 μM) are added into each well to start the reaction.

[6] = target: T2, κOR (Homo sapiens, UniProt P41145); assay: Opioid receptor competitive binding test, κOR; conditions: compound at 10 μM; [3H]-labeled ligand; CHO cell membranes; ± SD of three measurements
T2 construct: expressed in transfected cells; host or cells: CHO cells
Protocol: (§5) CHO cells expressing p opioid receptor, δ opioid receptor and K opioid receptor are cultured in a 10 cm^2 Petri dish (F-12 medium+10% newborn bovine serum) for several days, and the culture solution is sucked after the cells grew to the bottom of the dish. 3 ml PBS/EDTA solution (0.1M NaCl, 0.01M NaH2PO4, 0.04% EDTA) is added for digestion for 3-5 minutes. The cells are blown with a straw to get fall off completely, collected in a 40 ml centrifuge tube, centrifuged at 5000 rpm for 5 minutes, and removed with the supernatant. The centrifuge tube is added with ice-cold homogenate (50 mM HEPES PH 7.4, 3 mM MgCl2, 1 mM EGTA). The solution and precipitate are transferred to homogenizer for homogenization; Then the homogenate is transferred into a centrifuge tube, centrifuged at 18000 rpm for 15 minutes, and centrifuged twice; the obtained precipitate is added with an appropriate amount of buffer solution of 50 mM Tris-HCl and pH 7.4, homogenized and sub-packaged in centrifuge tubes. The product is stored in a refrigerator at −70° C. for later use.
(§6) 20-30 μg expressed membrane receptor protein and [3H]-labeled ligand (1-2 nM) are added to the total binding tube, added with 1 μM of corresponding ligand to the corresponding nonspecific binding tube. Various screened opioid ligand drugs (see the drug compounds in Table 1 below) are added to the sample tube with 100 μL final volume. The sample is incubated at 30° C. for 30 minutes, and the reaction is terminated in ice water. The glass fiber filter paper gF/C (whatman) is used for negative pressure filtration on Millipore sample collector. The sample is eluted with 4 ml 50 mm tris-HCl (pH 7.4) for three times, dried with the filter paper, put in 0.5 ml Eppendorf tube and added with 0.5 ml lipophilic scintillation liquid. The radioactive intensity is measured with PERKIN ELMER PRI-CARB 2910 liquid scintillation counter with calculation of the inhibition rate. The experiment is repeated for more than three times, with three compound tubes in each group. Inhibition rate(or binding rate)=(total binding rate dpm−sample tube dpm)/(total binding tube dpm-nonspecific binding tube dpm)×100%
(§7) IC50 is calculated with Prism 5.0 software. The Ki value is calculated according to the following formula: Ki=IC50/(1^+[L]/Kd), wherein [L] is the concentration of the added labeled ligand, and Kd is the equilibrium dissociation parameter of the labeled ligand.

[7] = Metabolic stability in liver microsomes, mouse; conditions: for half-life at 2 μM / microsomal CLint at 2 μM: mouse, microsomes, pH 7.4
Protocol: as §1, §2, §3, §4

[8] = target: CYP 2C19 (Homo sapiens, UniProt P33261); assay: Inhibition of cytochrome P450 enzyme in human liver microsomes, CYP 2C19
[9] = target: T3, μOR (Homo sapiens, UniProt P35372); assay: Opioid receptor competitive binding test, μOR; conditions: compound at 10 μM; [3H]-labeled ligand; CHO cell membranes; ± SD of three measurements
T3 construct: expressed in transfected cells; host or cells: CHO cells
Protocol: as §5, §6, §7

[10] = test system: Female Kunming mice; assay: Hot plate analgesia test in mice; type: in vivo; conditions: intraperitoneal, 55° C. hot plate; for ED50: Mus musculus, ip
Protocol: Female Kunming mice weighing about 20 g are placed on a hot plate instrument preheated to 55° C., and the latency of licking hind feet or lifting hind feet is used as the pain threshold index. Animals are screened before the experiment, and animals with latency less than 5 s or more than 30 s are excluded. To prevent foot burns, the longest observation time is set to 60s. The basic pain threshold is the average of two measurements, and the interval between the two measurements is 5 minutes. The pain threshold of mice in each group is determined at 15 minutes, 30 minutes, 60 minutes and 120 minutes after intraperitoneal administration. The effective percentage of analgesia (% MPE) is calculated according to the following formula
[formula] According to the effective percentage of analgesia, the ED50 value is calculated by graphpad prism 5.0 software.

[11] = target: T4, δOR (Homo sapiens, UniProt P41143); assay: Opioid receptor competitive binding test, δOR; conditions: compound at 10 μM; [3H]-labeled ligand; CHO cell membranes; ± SD of three measurements
T4 construct: expressed in transfected cells; host or cells: CHO cells
Protocol: as §5, §6, §7

[12] = Dog liver microsomes 0.5 mg/mL, NADPH 1 mM, compound 2 μM
[13] = Mouse liver microsomes 0.5 mg/mL, NADPH 1 mM, compound 2 μM

Row | SMILES | IC50 [1] [µM] | IC50 [2] [µM] | IC50 [3] [µM] | IC50 ([4]; substrate midazolam) [µM] | IC50 ([4]; substrate testosterone) [µM] | half-life at 2 μM [5] [min] | microsomal CLint at 2 μM [5] [µL/min/mg] | κOR binding rate [6] [%] | half-life at 2 μM [7] [min] | microsomal CLint at 2 μM [7] [µL/min/mg] | IC50 [8] [µM] | μOR binding rate [9] [%] | ED50 [10] [mg/kg] | δOR binding rate [11] [%] | CLint [5, 12] [μL/min/mg protein] | t1/2 [5, 12] [min] | CLint [7, 13] [μL/min/mg protein] | t1/2 [7, 13] [min] | ED50, hot plate [10] [mg/kg]
1 | [2H]C([2H])([2H])N(C)C[C@@H]1CN(C(=O)Cc2cc(F)c(F)cc2F)CC[C@@]1(O)c1cccc(OC)c1 [II-7hydrochloride, 1-((3R,4S)-4-hydroxy-4-(3-methoxyphenyl)-3-(((methyl-d3)amino)methyl)-1-piperidinyl)-2(2,4,5-trifluorophenyl)ethyl-1-one] | > 50 | > 50 | 14.7 | 49.7 | 47.5 | 5.25 | 669 | 16.6 ± 2.9 | 5.15 | 661 | > 50 | 26.1 ± 2.3 | 0.51 | 10.6 ± 2.0 | – | – | – | – | –
2 | [2H]C([2H])([2H])Oc1cccc([C@]2(O)CCN(S(=O)(=O)Cc3ccccc3)C[C@H]2CN(C([2H])([2H])[2H])C([2H])([2H])[2H])c1 [II-5hydrochloride] | > 50 | > 50 | 15.3 | > 50 | > 50 | 6.03 | 720 | 15.8 ± 4.6 | 6.05 | 706 | > 50 | 27.1 ± 1.2 | 0.58 | 12.9 ± 1.8 | – | – | – | – | –
3 | [2H]C([2H])([2H])N(C[C@@H]1CN(C(=O)Cc2cc(F)c(F)cc2F)CC[C@@]1(O)c1cccc(OC)c1)C([2H])([2H])[2H] [II-9hydrochloride] | > 50 | > 50 | 13.7 | 48 | 47 | 5.19 | 659 | 17.2 ± 3.5 | 5.03 | 612 | > 50 | 27.1 ± 1.1 | 0.52 | 12.8 ± 0.8 | – | – | – | – | –
4 | [2H]C([2H])([2H])Oc1cccc([C@]2(O)CCN(C(=O)Cc3cc(F)c(F)cc3F)C[C@H]2CN(C([2H])([2H])[2H])C([2H])([2H])[2H])c1 [II-11hydrochloride] | > 50 | > 50 | 12.8 | > 50 | > 50 | 5.99 | 703 | 16.4 ± 2.3 | 6.01 | 700 | > 50 | 24.3 ± 1.9 | 0.64 | 10.4 ± 1.1 | – | – | – | – | –
5 | [2H]C([2H])([2H])N(C)C[C@@H]1CN(S(=O)(=O)Cc2ccccc2)CC[C@@]1(O)c1cccc(OC)c1 [II-1hydrochloride] | > 50 | > 50 | 13 | 42.9 | 41.9 | 5.01 | 605 | 16.37 ± 1.6 | 5.19 | 659 | > 50 | 27.9 ± 1.3 | 0.52 | 11.6 ± 2.1 | – | – | – | – | –
6 | [2H]C([2H])([2H])N(C[C@@H]1CN(S(=O)(=O)Cc2ccccc2)CC[C@@]1(O)c1cccc(OC)c1)C([2H])([2H])[2H] [II-3hydrochloride] | > 50 | > 50 | 13.8 | 46.8 | 43.6 | 5.26 | 663 | 15.3 ± 2.0 | 5.24 | 660 | > 50 | 28.2 ± 1.5 | 0.5 | 12.3 ± 2.0 | – | – | – | – | –
7 | COc1cccc([C@]2(O)CCN(S(=O)(=O)Cc3ccccc3)C[C@H]2CN(C)C)c1.Cl [Example 20 of CN201911076305.X, reference compound] | – | – | – | – | – | – | – | 15.25 ± 1.56 | – | – | – | 27.52 ± 1.54 | – | 10.5 ± 3.7 | 839.02 | 1.65 | 1101.92 | 1.26 | 0.49
